Measurements from PubChem BioAssay AID588573 (Sanford-Burnham Center for Chemical Genomics, 2011).
Active and inactive are the calls of the source. How the calls were made is not given here.

target: Caspase-3 (Homo sapiens) + Caspase-9 (Homo sapiens) (UniProt P42574+P55211); assay: modulators of CASP3 activation by CASP9, concentration-response, specificity counterscreen for Apaf-1 activator project, biochemical, fluorescence readout, leucine zipper CASP9, ultra-high-throughput screening actives (AID 588573); details: LZ-caspase-9/caspase-3 coupled fluorogenic activity assay
Sequence (P42574 whole entry, looked up): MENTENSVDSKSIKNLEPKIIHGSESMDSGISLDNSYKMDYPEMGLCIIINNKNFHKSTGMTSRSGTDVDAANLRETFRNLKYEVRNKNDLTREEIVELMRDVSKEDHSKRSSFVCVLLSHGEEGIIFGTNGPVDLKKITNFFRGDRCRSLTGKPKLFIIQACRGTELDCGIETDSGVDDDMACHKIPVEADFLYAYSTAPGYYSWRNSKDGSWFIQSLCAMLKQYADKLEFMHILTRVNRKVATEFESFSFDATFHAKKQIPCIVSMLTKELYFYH
Sequence (P55211 whole entry, looked up): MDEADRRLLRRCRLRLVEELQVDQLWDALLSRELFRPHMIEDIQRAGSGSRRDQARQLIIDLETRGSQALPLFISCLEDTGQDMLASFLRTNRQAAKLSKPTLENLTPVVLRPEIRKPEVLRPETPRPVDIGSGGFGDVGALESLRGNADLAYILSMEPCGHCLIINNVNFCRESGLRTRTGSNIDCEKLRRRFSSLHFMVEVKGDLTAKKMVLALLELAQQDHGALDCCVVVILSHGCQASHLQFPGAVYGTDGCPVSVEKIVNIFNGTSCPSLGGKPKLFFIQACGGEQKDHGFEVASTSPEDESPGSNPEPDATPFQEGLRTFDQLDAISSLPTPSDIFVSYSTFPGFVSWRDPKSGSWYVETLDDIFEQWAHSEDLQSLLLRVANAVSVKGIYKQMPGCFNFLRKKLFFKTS

SMILES | EC50 | IC50 (inhibition of caspase signal) [µM]
CC(C)(CS(=O)(=O)[O-])NC(=O)CC[N+](C)(C)CCO | > 100 µM (inactive) | 
C=C(C)C(=O)Nc1cccc(C2=NOC3(C2)C[C@H](C(N)=O)N(C(=O)c2ccccc2C(=O)c2ccccc2)C3)c1 (some centres undefined) | > 100 µM (inactive) | 
CCN(CC)CCOc1ccc2c(c1)C(=NNC(=O)c1ccccn1)c1cc(OCCN(CC)CC)ccc1-2 | > 100 µM (inactive) | 
C=CC1=C(C(=O)O)N2C(=O)[C@@H](NC(=O)/C(=N\OCC(=O)O)c3csc(N)n3)[C@H]2SC1 | > 100 µM (inactive) | 
O=C1C2(CCCC13COC(c1ccc(O)cc1)OC3)COC(c1ccc(O)cc1)OC2 (centres undefined) | > 100 µM (inactive) | 
Cc1cc(C)n(CC(C)C(=O)O)n1 (centres undefined) | > 100 µM (inactive) | 
C=C(C)C(=O)Nc1cccc(C2=NOC3(C2)C[C@@H](C(N)=O)N(C(=O)c2cc([N+](=O)[O-])cc([N+](=O)[O-])c2C)C3)c1 (some centres undefined) | > 100 µM (inactive) | 
CCOc1ccc(C(=O)/C=C/Nc2ccc(S(=O)(=O)N=C(N)N)cc2)cc1 | > 100 µM (inactive) | 
C=C(C)C(=O)Nc1cccc(C2=NOC3(C2)C[C@@H](C(N)=O)N(C(=O)CCCCC)C3)c1 (some centres undefined) | > 100 µM (inactive) | 
C=C(C)C(=O)Nc1cccc(C2=NOC3(C2)C[C@H](C(N)=O)N(C(=O)/C=C/C)C3)c1 (some centres undefined) | > 100 µM (inactive) | 
C=CC1=C(C(=O)O)N2C(=O)[C@@H](NC(=O)/C(=N/OCC(=O)O)c3csc(N)n3)[C@H]2SC1 | > 100 µM (inactive) | 
COc1cc([N+](=O)[O-])ccc1NC(=O)COC(=O)c1ccc(NC(N)=O)cc1 | > 100 µM (inactive) | 
C=C(C)C(=O)Nc1cccc(C2=NOC3(C2)C[C@@H](C(N)=O)N(C(=O)C(=C)C)C3)c1 (some centres undefined) | > 100 µM (inactive) | 
N#C/C(=C\c1ccc(OCc2ccc(Cl)cc2)cc1)C(=O)Nc1cccc(C(=O)O)c1 |  | 15.6
COc1ccc([N+](=O)[O-])cc1NC(=O)CCS(=O)(=O)c1ccc(Br)cc1 | > 100 µM (inactive) | 
CC(CNc1ccccc1O)C(=O)O (centres undefined) | > 100 µM (inactive) | 
COC(=O)c1ccccc1-c1ccc(/C=C2\C(=O)N(c3ccccc3)N=C2c2ccccc2)o1 | > 100 µM (inactive) | 
N#CCCn1cc(C(CC(=O)c2ccc(Br)cc2)C(=O)O)c2ccccc21 (centres undefined) | > 100 µM (inactive) | 
CC(Cc1c[nH]c2ccccc12)C(=O)O (centres undefined) | > 100 µM (inactive) | 
COc1ccc(/C=C2\SC(=S)N(CCC(=O)Nc3ccc(C(=O)O)cc3)C2=O)cc1OC |  | 14.6
C=C(C)C(=O)Nc1cccc(C2=NOC3(C2)C[C@@H](C(N)=O)N(C(=O)/C=C/CC)C3)c1 (some centres undefined) | > 100 µM (inactive) | 
CC(/C=C\c1cccnc1)=C/C(=O)O | > 100 µM (inactive) | 
CCOc1ccccc1NC(=O)CCS(=O)(=O)c1ccc(Br)cc1 | > 100 µM (inactive) | 
CCc1ccc(N=C2NC(=O)/C(=C/c3cc(Br)c(OCC(=O)O)c(OC)c3)S2)cc1 |  | 23.6
C=C(C)C(=O)Nc1cccc(C2=NOC3(C2)C[C@@H](C(N)=O)N(C(=O)/C=C/C=C/C)C3)c1 (some centres undefined) | > 100 µM (inactive) | 
O=C(Nc1nc2ccsc2c(=O)s1)c1ccco1 | > 100 µM (inactive) | 
C=C(C)C(=O)Nc1cccc(C2=NOC3(C2)C[C@@H](C(N)=O)N(C(=O)/C(C)=C/C)C3)c1 (some centres undefined) | > 100 µM (inactive) | 
C=C(C)C(=O)Nc1cccc(C2=NOC3(C2)C[C@H](C(N)=O)N(C(=O)c2ccccc2)C3)c1 (some centres undefined) | > 100 µM (inactive) | 
O=C(CCS(=O)(=O)c1ccc(Br)cc1)NCc1ccco1 | > 100 µM (inactive) | 
